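Each compound was tested at five concentrations against cells in 96-well plates for 48 hours. GI50 is the concentration that inhibits growth by half. TGI: concentration producing complete growth inhibition.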
Assays:
Assay in all cases: NCI-60 cell line screen, 48 h
NCI-H226 lung = system: NCI-H226 lung
NCI-H460 lung = system: NCI-H460 lung
MDA-MB-468 breast = system: MDA-MB-468 breast
COLO 205 colon = system: COLO 205 colon
HCT-15 colon = system: HCT-15 colon
ACHN renal = system: ACHN renal
K-562 leukemia = system: K-562 leukemia
SF-295 CNS = system: SF-295 CNS
UACC-257 melanoma = system: UACC-257 melanoma
SK-MEL-28 melanoma = system: SK-MEL-28 melanoma
OVCAR-4 ovarian = system: OVCAR-4 ovarian
LOX IMVI melanoma = system: LOX IMVI melanoma
MOLT-4 leukemia = system: MOLT-4 leukemia
SN12C renal = system: SN12C renal
A549 NSCLC = system: A549 NSCLC
HCT-116 colon = system: HCT-116 colon
SNB-19 CNS = system: SNB-19 CNS
HCC-2998 colon = system: HCC-2998 colon
MCF7 breast = system: MCF7 breast
RPMI-8226 leukemia = system: RPMI-8226 leukemia
OVCAR-5 ovarian = system: OVCAR-5 ovarian
MALME-3M melanoma = system: MALME-3M melanoma
CAKI-1 renal = system: CAKI-1 renal
MDA-MB-231 breast = system: MDA-MB-231 breast
UACC-62 melanoma = system: UACC-62 melanoma
SK-OV-3 ovarian = system: SK-OV-3 ovarian
NCI/ADR-RES ovarian = system: NCI/ADR-RES ovarian
U251 CNS = system: U251 CNS
SW-620 colon = system: SW-620 colon
TK-10 renal = system: TK-10 renal
786-0 renal = system: 786-0 renal
HOP-62 NSCLC = system: HOP-62 NSCLC
SR leukemia = system: SR leukemia
OVCAR-3 ovarian = system: OVCAR-3 ovarian
HL-60(TB) leukemia = system: HL-60(TB) leukemia
M14 melanoma = system: M14 melanoma
EKVX NSCLC = system: EKVX NSCLC
OVCAR-8 ovarian = system: OVCAR-8 ovarian
BT-549 breast = system: BT-549 breast
UO-31 renal = system: UO-31 renal
PC-3 prostate = system: PC-3 prostate
T-47D breast = system: T-47D breast
SK-MEL-2 melanoma = system: SK-MEL-2 melanoma
SF-539 CNS = system: SF-539 CNS
HOP-92 NSCLC = system: HOP-92 NSCLC
CCRF-CEM leukemia = system: CCRF-CEM leukemia
HS 578T breast = system: HS 578T breast
NCI-H522 lung = system: NCI-H522 lung
A498 renal = system: A498 renal
SK-MEL-5 melanoma = system: SK-MEL-5 melanoma
KM12 colon = system: KM12 colon
MDA-MB-435 = system: MDA-MB-435
DU-145 prostate = system: DU-145 prostate
NCI-H23 lung = system: NCI-H23 lung
SNB-75 CNS = system: SNB-75 CNS
SF-268 CNS = system: SF-268 CNS
IGROV1 ovarian = system: IGROV1 ovarian
HT29 colon = system: HT29 colon

With `COC(=O)CCn1c(-c2ccc(-n3cc(-c4ccc(O[C@H]5O[C@@H]6OC7(C)CC[C@H]8[C@H](C)CC[C@@H]([C@H]5C)[C@@]68OO7)cc4)nn3)cc2)nc2ccccc21` the GI50 (NCI-H226 lung) was 163 nM, the TGI (NCI-H226 lung) was 2300 nM and the GI50 (NCI-H460 lung) was 274 nM. The TGI (NCI-H460 lung) was > 9250 nM, the GI50 (MDA-MB-468 breast) was 177 nM and the TGI (MDA-MB-468 breast) was 588 nM. The GI50 (COLO 205 colon) was 68.5 nM, the TGI (COLO 205 colon) was > 9250 nM and the GI50 (HCT-15 colon) was 37.6 nM. For the same compound, the TGI (HCT-15 colon) was > 9250 nM, the GI50 (ACHN renal) was 262 nM and the TGI (ACHN renal) was 1360 nM. For the same compound, the GI50 (K-562 leukemia) was 38.8 nM, the TGI (K-562 leukemia) was > 9250 nM and the GI50 (SF-295 CNS) was 223 nM. For the same compound, the TGI (SF-295 CNS) was > 9250 nM, the GI50 (UACC-257 melanoma) was 276 nM and the TGI (UACC-257 melanoma) was > 9250 nM. The GI50 (SK-MEL-28 melanoma) was 148 nM, the TGI (SK-MEL-28 melanoma) was > 9250 nM and the GI50 (OVCAR-4 ovarian) was 155 nM. The TGI (OVCAR-4 ovarian) was > 9250 nM, the GI50 (LOX IMVI melanoma) was 37.1 nM and the TGI (LOX IMVI melanoma) was 158 nM. For the same compound, the GI50 (MOLT-4 leukemia) was 37.7 nM, the TGI (MOLT-4 leukemia) was 1620 nM and the GI50 (SN12C renal) was 189 nM. The TGI (SN12C renal) was > 9250 nM, the GI50 (A549 NSCLC) was 277 nM and the TGI (A549 NSCLC) was > 9250 nM. For the same compound, the GI50 (HCT-116 colon) was 34.3 nM, the TGI (HCT-116 colon) was > 9250 nM and the GI50 (SNB-19 CNS) was 274 nM. The TGI (SNB-19 CNS) was > 9250 nM, the GI50 (HCC-2998 colon) was 319 nM and the TGI (HCC-2998 colon) was > 9250 nM. The GI50 (MCF7 breast) was 40.9 nM, the TGI (MCF7 breast) was > 9250 nM and the GI50 (RPMI-8226 leukemia) was 42.7 nM. The TGI (RPMI-8226 leukemia) was 5120 nM, the GI50 (OVCAR-5 ovarian) was 134 nM and the TGI (OVCAR-5 ovarian) was > 9250 nM. The GI50 (MALME-3M melanoma) was 175 nM, the TGI (MALME-3M melanoma) was 5420 nM and the GI50 (CAKI-1 renal) was 333 nM. For the same compound, the TGI (CAKI-1 renal) was > 9250 nM, the GI50 (MDA-MB-231 breast) was 208 nM and the TGI (MDA-MB-231 breast) was 2420 nM. It also gave a GI50 (UACC-62 melanoma) of 135 nM, a TGI (UACC-62 melanoma) of 1970 nM and a GI50 (SK-OV-3 ovarian) of 640 nM. For the same compound, the TGI (SK-OV-3 ovarian) was > 9250 nM, the GI50 (NCI/ADR-RES ovarian) was 307 nM and the TGI (NCI/ADR-RES ovarian) was > 9250 nM. The GI50 (U251 CNS) was 61 nM, the TGI (U251 CNS) was > 9250 nM and the GI50 (SW-620 colon) was 43.8 nM. The TGI (SW-620 colon) was > 9250 nM, the GI50 (TK-10 renal) was 386 nM and the TGI (TK-10 renal) was > 9250 nM. For the same compound, the GI50 (786-0 renal) was 330 nM, the TGI (786-0 renal) was > 9250 nM and the GI50 (HOP-62 NSCLC) was 558 nM. For the same compound, the TGI (HOP-62 NSCLC) was > 9250 nM, the GI50 (SR leukemia) was 40.2 nM and the TGI (SR leukemia) was 1140 nM. The GI50 (OVCAR-3 ovarian) was 100 nM, the TGI (OVCAR-3 ovarian) was > 9250 nM and the GI50 (HL-60(TB) leukemia) was 98.4 nM. For the same compound, the TGI (HL-60(TB) leukemia) was 572 nM, the GI50 (M14 melanoma) was 360 nM and the TGI (M14 melanoma) was > 9250 nM. For the same compound, the GI50 (EKVX NSCLC) was 150 nM, the TGI (EKVX NSCLC) was > 9250 nM and the GI50 (OVCAR-8 ovarian) was 128 nM. The TGI (OVCAR-8 ovarian) was > 9250 nM, the GI50 (BT-549 breast) was 127 nM and the TGI (BT-549 breast) was 693 nM. It also gave a GI50 (UO-31 renal) of 194 nM, a TGI (UO-31 renal) of 1050 nM and a GI50 (PC-3 prostate) of 40 nM. The TGI (PC-3 prostate) was > 9250 nM, the GI50 (T-47D breast) was 37.4 nM and the TGI (T-47D breast) was > 9250 nM. It also gave a GI50 (SK-MEL-2 melanoma) of 238 nM, a TGI (SK-MEL-2 melanoma) of 812 nM and a GI50 (SF-539 CNS) of 197 nM. The TGI (SF-539 CNS) was > 9250 nM, the GI50 (HOP-92 NSCLC) was 128 nM and the TGI (HOP-92 NSCLC) was 765 nM. For the same compound, the GI50 (CCRF-CEM leukemia) was 51.7 nM, the TGI (CCRF-CEM leukemia) was > 9250 nM and the GI50 (HS 578T breast) was 205 nM. For the same compound, the TGI (HS 578T breast) was 5570 nM, the GI50 (NCI-H522 lung) was 97.6 nM and the TGI (NCI-H522 lung) was 1290 nM. The GI50 (A498 renal) was 5400 nM, the TGI (A498 renal) was > 9250 nM and the GI50 (SK-MEL-5 melanoma) was 216 nM. The TGI (SK-MEL-5 melanoma) was 1130 nM, the GI50 (KM12 colon) was 52.5 nM and the TGI (KM12 colon) was > 9250 nM. The GI50 (MDA-MB-435) was 78 nM, the TGI (MDA-MB-435) was > 9250 nM and the GI50 (DU-145 prostate) was 485 nM. The TGI (DU-145 prostate) was > 9250 nM, the GI50 (NCI-H23 lung) was 65.5 nM and the TGI (NCI-H23 lung) was 6490 nM. The GI50 (SNB-75 CNS) was 257 nM, the TGI (SNB-75 CNS) was > 9250 nM and the GI50 (SF-268 CNS) was 242 nM. For the same compound, the TGI (SF-268 CNS) was > 9250 nM, the GI50 (IGROV1 ovarian) was 257 nM and the TGI (IGROV1 ovarian) was > 9250 nM. For the same compound, the GI50 (HT29 colon) was 75.3 nM and the TGI (HT29 colon) was > 9250 nM.
